Assays:
[1] = test system: IFNγ; assay: IFNγ synthesis by PBMCs stimulated with IL-12 and IL-18 (ELISA); assay type: cell-based; settings: Homo sapiens; PBMC, IL-12 10 ng/ml + IL-18 20 ng/ml, 48 h; read-out: IFNγ (from IL-12 + IL-18) IC50
Description: Cytokine IFNγ is produced by the T lymphocytes following their stimulation by pro-inflammatory cytokines, especially IL-12 and IL-18 (Dinarello C. A. and Moldawer L. L. Proinflammatory and anti-inflammatory cytokines in rheumatoid arthritis. A primer for clinicians. 2nd Edition, Amgen Inc., 2000).
At the end, the cells were stimulated for 48 hours in the presence of the compound by simultaneous addition of recombinant IL-12 (10 ng/ml) and recombinant IL-18 (20 ng/ml). The quantity of IFNγ produced was determined with a commercial ELISA assay.

[2] = test system: Con A-induced liver injury; assay: Con A-induced liver injury, serum ALT; assay type: in vivo, C57B16 mice; settings: single dose 50 mg/kg i.p. 1 h before Con A i.v.; vehicle 15.190±2.580
Description: After 24 h, serum amino-alanine transferase was measured. Intravenous injection of Con A results in hepatic cell death within 12-24 h with markedly elevated serum levels of hepatic enzymes such as alanine amino transaminase (ALT).

[3] = test system: mouse peritoneal macrophages; assay: Nitric oxide production from mouse peritoneal macrophages (Griess); assay type: cell-based, C57BLy6 mice; settings: TNF-α plus IFN-γ stimulation, 24 h
Description: C57BLy6 mice were injected i.p. with 1 ml of sterile thioglycolate broth and killed after 5 days, and macrophages were isolated using instillation of 10 ml of ice-cold PBS into the peritoneal cavity. The cells were centrifuged (350×g) and 3 ml of erythrocyte lysing reagent (PharMingen) was added for 10 min.
Seven milliliters of DMEM containing 5% FCS was added and the cells were centrifuged at 4° C. The cells were resuspended in DMEM at 1 million per ml and 0.5 ml were added to wells of a 48-well plate. […] After 24 h, NO levels in the supernatant were determined using the Griess reagent as described in Am.J.Physiol.Cell Physiol. (2001), 280, C441-C450.

[4] = test system: IL-12 (p70); assay: Inhibition of IL-12 production by cultured monocytes (ELISA); assay type: cell-based; settings: nonadherent human monocytes
Description: Venous blood was obtained from consenting adults and separated over Ficoll-Hypaque. The PBMC fraction was washed and adjusted to five million cells per ml. […] The cells were stimulated with LPS, soluble OKT3, or cytokines, and after 24 or 48 h At 37° C. the supernatant was removed and frozen for cytokine assays. Monocytes were isolated by centrifugation over Percoll, washed, suspended in RPMI with 10% FCS, and aliquoted at 2 million cells per ml in Petriperm Teflon-coated culture dishes (Sigma). The ELISA for human IL-12 (p70) was purchased from Endogen (Woburn, Mass.).

- IC50 [1]: 740 nM
SMILES: O=C(CCCCCCC(=O)Nc1ccccc1)NO [SAHA, suberoylanilide hydroxamic acid]
- 24-h level of serum ALT (mean±SE) [2]: 8.144±2.091 units/liter
- reduction of NO production ([3]; 200 nM): 50%
- reduction of NO production ([3]; 400 nM): 80%
- reduction of NO production ([3]; 800 nM): 85%
- reduction in LPS/IFN-γ-induced IL-12 production ([4]; 200 nM): 55%
- reduction in LPS/IFN-γ-induced IL-12 production ([4]; 400 nM): 86%

— US20040157930A1, “Histone deacetylase enzyme-inhibiting derivatives of hydroxamic acid as new cytokine synthesis-inhibiting anti-inflammatory drugs” (priority 2001, published 2004)
